Patent US12257290B2, “PIC1 inhibition of myeloperoxidase oxidative activity in an animal model” (priority 2018, dated 2025)
Ends that are not written are not given here.

Key:
[1] = tested on: classical complement pathway; details: administered intravascularly into rats; by 30 seconds; cited from earlier work
[2] = tested on: complement activation in normal human serum (NHS); experiment: Heat-aggregated IgG immune complex-initiated complement activation in normal human serum (C5a, iC3b, SC5b-9 ELISA); format: biochemical
Description: (§1) Immune complex activation of NHS was performed as follows. NHS was stimulated with three different types of immune complexes (IC) to induce complement activation. Heat-aggregated IgG was generated by incubating intravenous immune globulin at 50 mg/ml at 63° C. for 30 min [26]. Ovalbumin-antiovalbumin immune complexes were made by incubating 0.01 ml anti-ovalbumin antibody with an equal volume of ovalbumin, at 0.25 mg/nil, at 37° C. for 30 minutes and then storing at 4° C. overnight. C1 immune complexes were formed by incubating 0.02 ml anti-C1q goat sera with 5 μl of C1, at 200 μg/ml, at 30° C. for 30 minutes and then placing in an ice water bath. For C5a and C5b-9 assays, activation of NHS was performed by pre-incubating 5% NHS with titrating concentrations of PA-dPEG24 in 0.3 ml of GVBS^++ buffer for 30 minutes at room temperature. Then […] of either heat-aggregated IVIg, or ovalbumin IC, or 5 μI of C1-antiC1q IC was added to the mix for 30 min. at 37° C. This reaction was stopped with the addition of an equal volume of GVBS^−−. For iC3b detection, 1% NHS was used and the rest of the protocol remained the same.
ELISA was performed as follows. Samples were assayed using C5a, iC3b, and SC5b-9 ELISAs. […] Colorimetric detection was performed with TMB, stopped with H2SO4 and read on a BioTek Synergy HT plate reader at 450 nm. […]

human neutrophils = experiment: MPO-initiated NET formation by human neutrophils (fluorescence microscopy, PicoGreen free DNA); format: cell-based; details: for reduction in free DNA (PicoGreen): vs MPO with no inhibitor
Description: Neutrophils from the blood of healthy volunteers were purified from heparinized blood by Hypaque-Ficoll step gradient centrifugation, dextran sedimentation, and hypotonic lysis, as previously described.
A Neutrophil Extracellular Trap assay was performed in a microtiter plate as follows. The formation of NETs was induced by incubating 2.0×10^5 neutrophils in a 96 well tissue culture plates with RPMI media alone, or adding 0.05% of H2O2, or 12 nM PMA, or 8 μg/ml MPO, or PA-dPEG24 at various concentrations. For immune complex sera induced NET formation, activated sera was made by adding 5 μl of ovalbumin-anti-ovalbumin immune complex to 5% NHS in 0.3 ml of GVBS^++. This combination was allowed to incubate for 30 minutes at 37° C., and then 0.05 ml was added to the neutrophils in RPMI. Cells were then incubated for 1.5 hours at 37° C. in 5% CO2 incubator.
NET formation was quantitatively assayed as follows. Free DNA was measured by PicoGreen in the supernatant recovered from the NET microtiter plate well assay. Five hundred units of […] (Fisher) were added to each well to allow for digestion of released extracellular DNA for 10 minutes in 37° C. incubator. The preparation was then aliquoted into an adjacent well and mixed 1:1 with prepared PICO green reagent (Fisher). The fluorescence was then quantified on a BioTek microplate reader at Excitation 485 nm/Emission 528 nm.
NET formation was assayed by fluorescence microscopy. Purified human neutrophils were assayed on a glass slide as follows. Cells were combined with RPMI media and the indicated stimuli as mentioned above in a tube and then aliquoted onto a glass slide circled with a hydrophobic slide marker. The slides were incubated for 1.5 hours at 37° C. in a 5% CO2 incubator at 37 degrees for 1.5 hours. Slides were fixed overnight with 4% paraformaldehyde at 4° C.
For all staining, the following conditions were used. Slides were washed in PBS and incubated in blocking solution (2% normal goat serum+2% bovine serum albumin in PBS) for 1 hour at room temperature. Then the slides were incubated with primary antibody at 1:300 in 2% BSA in PBS for 1 hour at room temperature. Slides were washed in PBS 3 times and incubated in fluorescent-labeled secondary antibody at 1:1000 or DAPI (Southern Biotech) at 0.25 pg/ml final in 2% BSA in PBS for 1 hour at room temperature. Slides were then washed 3 times in PBS and were imaged. Cells were visualized using a DP70 Digital Camera (Olympus Center, Valley Forge, PA), mounted on a BX50, Olympus microscope. Staining antibody pairs used were rabbit anti-MPO (Thermo Scientific) and rabbit anti-Histone H3 (Abcam) with the secondary goat anti-rabbit Alexa Fluor 488 (Novus Biologicals). […]

[3] = tested on: complement activation in normal human serum (NHS); experiment: C1-antiC1q immune complex-initiated complement activation in normal human serum (C5a, iC3b, SC5b-9 ELISA); format: biochemical
Description: as §1
ELISA was performed as follows. Samples were assayed using C5a, iC3b, and SC5b-9 ELISAs. A C5a ELISA kit (R&D Systems) was used per the manufacturer's instructions. ELISAs for iC3b and SC5b-9 were performed as previously described. In iC3b ELISA, a goat anti-human C3 antibody (Complement Technology, Tyler TX) was used in for capture, a mouse anti-human iC3b antibody (Quidel, San Diego CA) for probing, and a goat anti-mouse HRP antibody for detection. In SC5b-9 ELISA, a rabbit anti-human SC5b-9 antibody (Complement Technology) was used for capture, a mouse anti-human SC5b-9 monoclonal antibody (Quidel) for probing, and a chicken anti-mouse HRP antibody for detection. Colorimetric detection was performed with TMB, stopped with H2SO4 and read on a BioTek Synergy HT plate reader at 450 nm.
Due to the importance of anti-C1q antibodies in a subset of patients with SLE, immune complexes with human C1 and anti-C1q antibodies (goat) were generated. […]

For “IALILEPICCQERAA-dPEG24 (cysteine pairing not given here) [PA-dPEG24, 15-amino acid PEGylated peptide, 24 PEG moieties at the C-terminus]”, the “systemic inhibition of complement activation” value [1] is given as greater than 90%, the “reduction of C5a generation” value ([2]; 1 mM PA-dPEG24, vs heat-aggregated IgG with no inhibitor, P=0.002) is given as 61% and the “PA-dPEG24 concentration giving statistically significant inhibition of effector (C5a, iC3b, SC5b-9) generation” value ([2]; heat-aggregated IgG in NHS, each assay, P<0.05 vs no inhibitor) is given as no less than 0.5 mM. The “reduction in free DNA (PicoGreen)” value (human neutrophils; 1.1 mM PA-dPEG24, P=0.02) was 30%, the “reduction in free DNA (PicoGreen)” value (human neutrophils; 4.5 mM PA-dPEG24, P=0.001) was 3.7 fold and the “NET formation by fluorescence microscopy” value (human neutrophils; 5 mM PA-dPEG24, MPO + hydrogen peroxide) was “blocked”. For the same substance, the “appearance of neutrophils incubated with PA-dPEG24 alone, fluorescence microscopy” value (human neutrophils; PA-dPEG24 only, no stimulus) was “appeared normal”, the “C1-antiC1q generation of iC3b” value ([3]; 2 mM PA-dPEG24, P<0.02) was “inhibited by 2 mM PA-dPEG24 (P<0.02) to a level similar to NHS baseline” and the “PA-dPEG24 concentration inhibiting C1-antiC1q generation of SC5b-9” value ([3]; P<0.03) was no less than 0.13 mM. The “C1-antiC1q generation of C5a in NHS” value ([3]; at each concentration, P<0.03) was “dose-dependently inhibited”.
